Measured values: paper PMC9971260 (Scientific Reports, 2023)
Structures can show the parent of a compound that is named as a salt.

Key:
COX-2 = conditions: cited from earlier work
[1] = test system: carrageenan-induced hyperalgesia; test: post-treatment of carrageenan-induced hyperalgesia; format: in vivo, rat; conditions: rats
Description: The PWL of untreated rats from the pre-treatment carrageenan study were used as a negative control in this experiment, as well. […] One hind paw was randomly selected to be the observed paw for the entirety of the experiment. Prior to administration of a treatment, the baseline (-23 h) PWL was assessed as described above.
Twenty-three hours after administration of carrageenan, PWL was assessed (23 h) to confirm induction of hyperalgesia, and to establish the PWL prior to treatment. […] PWL was assessed relative to administration of treatment ([…], 48, 72, and 96 h), and two PWL measurements were taken at each time point for each rat.

[2] = test system: carrageenan-induced paw edema and hyperalgesia; test: pre-treatment of carrageenan-induced paw edema and hyperalgesia; conditions: rats
[3] = set-up: method as in earlier work; conditions: cited from earlier work
postoperative pain [4] = test: post-treatment of postoperative pain (incisional model); format: in vivo, mouse; conditions: mice, 5 mg/kg SC daily Days 1 to 7
Description: Thirty-one (31) mice were randomly assigned to one of four treatment groups: vehicle (5 μL/g, SC) (n = 8), UK4b (20 mg/kg, SC) (n = 7), UK4b (10 mg/kg, SC) (n = 8), and morphine (5 mg/kg, SC) (n = 8). This experiment took place over 14 days. […] Similarly, four days before surgery, the animals began acclimation for one hour per day to the mechanical sensitization (allodynia) apparatus before assessment. Mechanical sensitization was measured with a series of 8 von Frey fiber filaments (0.008 g (1.65); 0.02 g (2.36); 0.07 g (2.83); 0.16 g (3.22); 0.4 g (3.61); 1.0 g (4.08); 2.0 g (4.31); 6.0 g (4.74); Stoelting, Wood Dale, IL) using a modified up-down method. For the algorithm, each filament is applied to the plantar surface of the hind paw for five times. If the mouse retracts that hind paw at least three times, that is considered a positive response to the filament, and the next applied filament would be weaker than the last. If the animal retracts the hind paw fewer than three times, this is a negative response, and the next stronger filament is applied. […] Two hours after surgery was complete, PWL was assessed, followed by measurement of mechanical sensitization threshold. […] On Day 9, 48 h after the final treatment was administered on Day 7, PWL and mechanical sensitization threshold were assessed to follow-up with the animals after treatment ceased. […]

postoperative pain [5] = test: pre- and post-treatment of postoperative pain (incisional model); format: in vivo, mouse; conditions: mice, pretreatment 5 mg/kg SC 2 h before surgery
Description: Twenty-eight (28) mice were randomly assigned to one of four treatment groups: vehicle (5 μL/g, SC) (n = 8), UK4b (20 mg/kg, SC) (n = 7), UK4b (10 mg/kg, SC) (n = 7), and morphine (5 mg/kg, SC) (n = 6). This experiment took place over 14 days. Animals underwent the same acclimation and baseline measurement for PWL and mechanical sensitization threshold as described in the section above on Days -4 to -1. On Day 0, surgery was performed as described above, but each animal received their first treatment two hours prior to surgery (-2 h). Two hours after surgery was complete, PWL was assessed, followed by measurement of mechanical sensitization threshold. Treatment continued once daily from Days 1 through 7. Two hours after drug treatment, PWL and mechanical sensitization threshold are measured. On Day 9, 48 h after the final treatment was administered on Day 7, PWL and mechanical threshold are assessed to follow-up with the animals after treatment ceases. The PWL (seconds) was graphed relative to time (days since surgery). Mechanical sensitization thresholds were graphed as 50% threshold (grams) versus time (days since surgery).

COX-1 = conditions: read-out: IC50 against COX-1; cited from earlier work
[6] = mouse, in vivo, 50 mg/kg; cited from earlier work

CS(=O)(=O)c1ccc(C2=C(c3ccccc3)C(=O)OC2)cc1 [rofecoxib]
IC50 against COX-2 (in words) (COX-2): low-nanomolar

COc1ccc2c3c1O[C@H]1C(=O)CC[C@@]4(O)[C@@H](C2)N(C)CC[C@]314 [oxycodone, Oxycodone hydrochloride]
carrageenan-induced hyperalgesia (PWL), post-treatment ([1]; 5 mg/kg IP 23 h after carrageenan): significantly relieved the pain | carrageenan-induced hyperalgesia (PWL) ([2]; pretreatment 5 mg/kg IP, at and after 23 h): still significant pain | carrageenan-induced hyperalgesia (PWL) ([2]; pretreatment 5 mg/kg IP, within six hours after carrageenan injection): effectively relieved the pain

CCCCC[C@H](O)/C=C/[C@H]1[C@H](O)CC(=O)[C@@H]1C/C=C\CCCC(=O)O [PGE2, prostaglandin E2]
plasma half-life [3]: 2.5 to 5 min

CN1CC[C@]23c4c5ccc(O)c4O[C@H]2[C@@H](O)C=C[C@H]3[C@H]1C5 [morphine]
postoperative allodynia (50% mechanical threshold) (postoperative pain [4]): significantly attenuated | postoperative hyperalgesia (PWL) (postoperative pain [4]): significantly attenuated | postoperative allodynia (50% mechanical threshold) on Day 0 (postoperative pain [5]): did not significantly attenuate the postoperative allodynia | postoperative hyperalgesia (PWL) on Day 0 (postoperative pain [5]): significantly attenuating the postoperative hyperalgesia

NCC1(CC(=O)O)CCCCC1 [gabapentin]
carrageenan-induced hyperalgesia (PWL), post-treatment ([1]; 100 mg/kg IP 23 h after carrageenan): significantly relieved the pain | carrageenan-induced hyperalgesia (PWL) ([2]; pretreatment 100 mg/kg IP 1 h or 4 h before carrageenan): similarly relieved the hyperalgesia, but 100 mg/kg gabapentin was not as effective as 10 mg/kg UK4b

Cc1ccc(-c2cc(C(F)(F)F)nn2-c2ccc(S(N)(=O)=O)cc2)cc1 [celecoxib]
stomach tissue damage [6]: caused stomach tissue damage in all mice
